The text below walks through data of patent US4016166A, “1-Nitrophenylquinazoline-2,4(1H,3H)-diones” (Hisamitsu Pharmaceutical Co., Inc., priority 1973, dated 1977).

The subject of one series is carrageenin edema. In words: Anti-inflammatory effect (carrageenin edema, hind paw, rat). It counts as in vivo, Wistar-strain male rats. The settings on record: oral, 3 hours after carrageenin, read-out: anti-inflammatory effect (inhibition percentage of carrageenin edema). On the procedure: A group of five Wistar-strain male rats (100-150 g) were orally administered with each test compound suspended in 0.5 % tragacanth-saline solution. After 30 minutes 0.5 %-1.0 % carrageenin suspended in the water for injection was injected subcutaneously to a hind paw. After 3 hours the carrageenin edema was measured by volume and the inhibition percentage was determined with respect to the results for the control animals. The inhibition percentages were shown with the notations as follows: […]
Background: The carrageenan paw model is a standard test of acute inflammation.

The subject of the next series is righting reflex. Nature of the series: Central nervous system depressive effect (disappearance of righting reflex, mouse). The following applies: ip, read-out: CNS depressive effect (dose required for disappearance of righting reflex). The format is in vivo, dd-strain male mice. On the procedure: Each test compound suspended in 0.5 % tragacanth-saline solution was injected intraperitoneally to dd-strain male mice (16-24 g). The disappearance of righting reflex was observed under noiseless circumstances. The dose required for the dissappearance of righting reflex is indicated with the following notations: […]

Another series concerns dd-strain male mice. It counts as in vivo. The settings on record: mouse, 72 hours. The method, then:
The lethal dose was estimated from the death of animals 72 hours after administration.

Series [1] has as its system acetic acid writhing syndrome. In words: Analgetic effect (acetic acid writhing, mouse). The format is in vivo, dd-strain male mice. The settings on record: oral, read-out: analgetic effect ED50 (95% C.L.). The text has this: Each test compound suspended in 0.5 % tragacanth-saline solution was orally administered to dd-strain male mice (18-20 g). After one hour 0.6 % acetic acid solution was intraperitoneally injected in a volume of […].

Where two headings read alike, the source gives them in different places.

As for `O=c1c2ccccc2n(-c2cccc([N+](=O)[O-])c2)c(=O)n1CC1CC1`, in the series on carrageenin edema, the inhibition in vivo at 10 mg/kg is 31 to 45% and the inhibition in vivo at 50 mg/kg was in the range of 46 to 60%. Moreover, the minimal effective dose in the series on righting reflex (mouse) was in the range of 100 to 300 mg/kg. In addition, the “acute toxicity (lethal dose)” value in the series on dd-strain male mice (i.p.) was determined as 1000 mg/kg.

Regarding `O=C(O)c1ccccc1Nc1cccc(C(F)(F)F)c1` [flufenamic acid, reference compound], the minimal effective dose in the series with righting reflex (mouse) is above 1000 mg/kg.

As a reminder, the ED50 is the dose that gives a 50% effect, or the effect in half of the subjects. Consider `C#CCn1c(=O)c2ccccc2n(-c2cccc([N+](=O)[O-])c2)c1=O`, for which, in the series on carrageenin edema, the inhibition in vivo at 10 mg/kg is below 15% and the inhibition in vivo at 50 mg/kg was 31 to 45%. Moreover, the ED50 in series [1] is 40 mg/kg. For the same molecule, the minimal effective dose in the series with righting reflex (mouse) was above 1000 mg/kg. In addition, the “acute toxicity (lethal dose)” value in the series on dd-strain male mice (i.p.) was above 1000 mg/kg. Further, in the series with dd-strain male mice (p.o.), the “acute toxicity (lethal dose)” value is given as above 2000 mg/kg.

Take `CCn1c(=O)c2ccccc2n(-c2cccc([N+](=O)[O-])c2)c1=O` [Compound 3, 1-(m-nitrophenyl)-3-ethylquinazoline-2,4(1H, 3H)-dione]: in the series on carrageenin edema, the inhibition in vivo at 10 mg/kg was above 61% and the inhibition in vivo at 50 mg/kg is above 61%. Further, the ED50 in series [1] was determined as 6 mg/kg. In the series with righting reflex (mouse), the minimal effective dose lay within 30 to 100 mg/kg. Moreover, in the series on dd-strain male mice (i.p.), the “acute toxicity (lethal dose)” value was above 1000 mg/kg. Further, the “acute toxicity (lethal dose)” value in the series on dd-strain male mice (p.o.) is recorded as above 2000 mg/kg.

Take `CCOCCn1c(=O)c2ccccc2n(-c2cccc([N+](=O)[O-])c2)c1=O` [Compound 16, 1-(m-nitrophenyl)-3-(2-ethoxyethyl)quinazoline-2,4(1H, 3H)-dione]: the inhibition in vivo at 50 mg/kg with carrageenin edema lay within 16 to 30%. In addition, the ED50 in series [1] amounted to 2.15 mg/kg. The minimal effective dose with righting reflex (mouse) was 30 to 100 mg/kg. The “acute toxicity (lethal dose)” value was above 1000 mg/kg in the series on dd-strain male mice (i.p.) and above 2000 mg/kg in the series with dd-strain male mice (p.o.).

Take `O=c1c2ccccc2n(-c2cccc([N+](=O)[O-])c2)c(=S)n1CC(F)(F)F` [Compound 26]: the inhibition in vivo at 50 mg/kg in the series on carrageenin edema is below 15%. For the same molecule, the ED50 in series [1] was above 100 mg/kg. In the series on righting reflex (mouse), the minimal effective dose is above 1000 mg/kg. For the same molecule, the “acute toxicity (lethal dose)” value is reported as above 1000 mg/kg in the series with dd-strain male mice (i.p.) and above 2000 mg/kg in the series with dd-strain male mice (p.o.).

Regarding `Cc1ccccc1-n1c(C)nc2ccccc2c1=O` [methaqualone, reference compound], the minimal effective dose in the series on righting reflex (Mus musculus) was 10 to 30 mg/kg.

In the case of `C=CCn1c(=O)c2ccccc2n(-c2cccc([N+](=O)[O-])c2)c1=O` [Compound 6, 1-(m-nitrophenyl)-3-allylquinazoline-2,4(1H, 3H)-dione], in the series on carrageenin edema, the inhibition in vivo at 10 mg/kg was in the range of 16 to 30% and the inhibition in vivo at 50 mg/kg is 31 to 45%. In addition, in series [1], the ED50 is above 100 mg/kg. The minimal effective dose with righting reflex (mouse) was above 1000 mg/kg. In the series with dd-strain male mice (i.p.), the “acute toxicity (lethal dose)” value was above 1000 mg/kg. Besides, the “acute toxicity (lethal dose)” value in the series on dd-strain male mice (p.o.) was 2000 mg/kg.

On to `Cn1c(=O)c2ccccc2n(-c2cccc([N+](=O)[O-])c2)c1=S` [Compound 23], for which, in the series on carrageenin edema, the inhibition in vivo at 10 mg/kg is below 15% and the inhibition in vivo at 50 mg/kg was 16 to 30%. Also, the ED50 in series [1] was above 100 mg/kg. Besides, the minimal effective dose in the series with righting reflex (mouse) was above 1000 mg/kg. Further, the “acute toxicity (lethal dose)” value in the series with dd-strain male mice (i.p.) is above 1000 mg/kg.

For the molecule `O=c1c2ccccc2n(-c2cccc([N+](=O)[O-])c2)c(=O)n1CCCl` [Compound 11], the inhibition in vivo at 50 mg/kg in the series with carrageenin edema lay within 16 to 30%. Also, the ED50 in series [1] turned out to be 5.5 mg/kg. In the series on righting reflex (mouse), the minimal effective dose fell in the range of 100 to 300 mg/kg. Moreover, the figures for the “acute toxicity (lethal dose)” value in the series with dd-strain male mice (i.p.) and with dd-strain male mice (p.o.) were above 1000 mg/kg and above 2000 mg/kg, respectively.

For the molecule `CCn1c(=O)c2ccccc2n(-c2cccc([N+](=O)[O-])c2)c1=S` [Compound 24, 1-(m-nitrophenyl)-3-ethyl-2-thio-4-oxo-1,2,3,4-tetrahydroquinazoline], in the series on carrageenin edema, the inhibition in vivo at 10 mg/kg is 31 to 45% and the inhibition in vivo at 50 mg/kg was 46 to 60%. The ED50 in series [1] was 3.4 mg/kg. Besides, in the series on righting reflex (mouse), the minimal effective dose lay within 300 to 1000 mg/kg. For the same molecule, the “acute toxicity (lethal dose)” value with dd-strain male mice (i.p.) is reported as above 1000 mg/kg.

In the case of `Cn1c(=O)c2ccccc2n(-c2cccc([N+](=O)[O-])c2)c1=O` [Compound 2, 1-(m-nitrophenyl)-3-methylquinazoline-2,4(1H, 3H)-dione], in the series on carrageenin edema, the inhibition in vivo at 10 mg/kg fell in the range of 31 to 45%. Also, the inhibition in vivo at 50 mg/kg in the series with carrageenin edema is 46 to 60%. In addition, the ED50 in series [1] came out at 12.5 mg/kg. Moreover, in the series with righting reflex (mouse), the minimal effective dose fell in the range of 100 to 300 mg/kg. Further, the entries for the “acute toxicity (lethal dose)” value in the series on dd-strain male mice (i.p.) and with dd-strain male mice (p.o.) were above 1000 mg/kg and above 2000 mg/kg, respectively.

In the case of `CCn1c(=O)c2ccccc2n(-c2cccc(C(F)(F)F)c2)c1=O` [R1=drawing 18, R2=C2 H5, reference compound], in the series on carrageenin edema, the inhibition in vivo at 10 mg/kg is below 15% and the inhibition in vivo at 50 mg/kg lay in the range of 31 to 45%. In addition, in series [1], the ED50 was above 100 mg/kg. In addition, in the series with righting reflex (mouse), the minimal effective dose was above 1000 mg/kg. Further, the “acute toxicity (lethal dose)” value in the series on dd-strain male mice (i.p.) stood at 456 mg/kg. Moreover, in the series on dd-strain male mice (p.o.), the “acute toxicity (lethal dose)” value is on record as above 4000 mg/kg.

In the case of `O=c1c2ccccc2n(-c2cccc(C(F)(F)F)c2)c(=O)n1CCO` [R1=drawing 18, R2=CH2 CH2 OH, reference compound], in the series with carrageenin edema, the inhibition in vivo at 10 mg/kg is below 15% and the inhibition in vivo at 50 mg/kg fell in the range of 31 to 45%. Further, in series [1], the ED50 stood at 35 mg/kg. For the same molecule, the minimal effective dose in the series on righting reflex (mouse) lay within 30 to 100 mg/kg. Also, the “acute toxicity (lethal dose)” value with dd-strain male mice (i.p.) stood at 200 mg/kg. In addition, in the series on dd-strain male mice (p.o.), the “acute toxicity (lethal dose)” value is recorded as 970 mg/kg.

Regarding `CC(C)n1c(=O)c2ccccc2n(-c2cccc([N+](=O)[O-])c2)c1=O`, in the series with carrageenin edema, the inhibition in vivo at 10 mg/kg fell in the range of 16 to 30% and the inhibition in vivo at 50 mg/kg lay in the range of 46 to 60%. For the same molecule, in series [1], the ED50 was determined as 2.9 mg/kg. Also, the minimal effective dose in the series with righting reflex (mouse) fell in the range of 30 to 100 mg/kg. The “acute toxicity (lethal dose)” value in the series with dd-strain male mice (i.p.) is above 1000 mg/kg. Besides, the “acute toxicity (lethal dose)” value in the series on dd-strain male mice (p.o.) is above 2000 mg/kg.

Take `CCCn1c(=O)c2ccccc2n(-c2cccc([N+](=O)[O-])c2)c1=O` [Compound 4, 1-(m-nitrophenyl)-3-propylquinazoline-2,4(1H,3H)-dione]: in the series with carrageenin edema, the inhibition in vivo at 10 mg/kg was below 15% and the inhibition in vivo at 50 mg/kg lay in the range of 16 to 30%. In addition, in series [1], the ED50 was determined as 51 mg/kg. Moreover, the minimal effective dose in the series on righting reflex (mouse) was above 1000 mg/kg. For the same molecule, the “acute toxicity (lethal dose)” value with dd-strain male mice (i.p.) came to 1000 mg/kg. Also, the “acute toxicity (lethal dose)” value with dd-strain male mice (p.o.) is given as above 2000 mg/kg.

Consider `O=c1c2ccccc2n(-c2cccc([N+](=O)[O-])c2)c(=O)n1CC(F)(F)F` [Compound 12, 1-(m-nitrophenyl)-3-(2,2,2-trifluoroethyl) quinazoline-2,4(1H, 3H)-dione], for which the inhibition in vivo at 10 mg/kg in the series with carrageenin edema fell in the range of 16 to 30%. For the same molecule, the inhibition in vivo at 50 mg/kg in the series on carrageenin edema was in the range of 31 to 45%. Moreover, the ED50 in series [1] was determined as 44 mg/kg. Further, the minimal effective dose with righting reflex (mouse) was above 1000 mg/kg. The “acute toxicity (lethal dose)” value in the series with dd-strain male mice (i.p.) was above 1000 mg/kg; in the series with dd-strain male mice (p.o.), above 2000 mg/kg.

`O=c1c2ccccc2n(-c2cccc([N+](=O)[O-])c2)c(=O)n1CCOCCO` [Compound 17]: the inhibition in vivo at 50 mg/kg with carrageenin edema lay within 16 to 30%. In addition, the ED50 in series [1] came to 3.7 mg/kg. Besides, the minimal effective dose in the series on righting reflex (mouse) fell in the range of 30 to 100 mg/kg. Also, the figures for the “acute toxicity (lethal dose)” value in the series with dd-strain male mice (i.p.) and in the series on dd-strain male mice (p.o.) were 1000 mg/kg and 2000 mg/kg, respectively.

Consider `O=c1c2ccccc2n(-c2cccc([N+](=O)[O-])c2)c(=O)n1CCF` [Compound 10], for which the inhibition in vivo at 10 mg/kg with carrageenin edema is above 61%. Also, in the series with carrageenin edema, the inhibition in vivo at 50 mg/kg is 46 to 60%. The ED50 in series [1] turned out to be 1.48 mg/kg. In the series with righting reflex (mouse), the minimal effective dose fell in the range of 30 to 100 mg/kg. Further, the entries for the “acute toxicity (lethal dose)” value in the series on dd-strain male mice (i.p.) and with dd-strain male mice (p.o.) were above 1000 mg/kg and above 2000 mg/kg, respectively.

On to `CCCCC1C(=O)N(c2ccccc2)N(c2ccccc2)C1=O` [phenylbutazone, reference compound], for which the minimal effective dose in the series with righting reflex (mouse) fell in the range of 300 to 1000 mg/kg.

As for `O=c1c2ccccc2n(-c2cccc([N+](=O)[O-])c2)c(=O)n1CCO` [Compound 13], the inhibition in vivo at 50 mg/kg in the series on carrageenin edema lay in the range of 31 to 45%. Besides, the ED50 in series [1] stood at 2.25 mg/kg. Further, in the series with righting reflex (mouse), the minimal effective dose fell in the range of 10 to 30 mg/kg. Further, the “acute toxicity (lethal dose)” value in the series with dd-strain male mice (p.o.) stood at 2000 mg/kg.

On to `CC(=O)OCCn1c(=O)c2ccccc2n(-c2cccc([N+](=O)[O-])c2)c1=O` [Compound 18], for which the inhibition in vivo at 50 mg/kg in the series with carrageenin edema fell in the range of 16 to 30%. Also, the median effective dose (ED50) in series [1] is 1.7 mg/kg. The minimal effective dose with righting reflex (mouse) was 10 to 30 mg/kg. Further, the “acute toxicity (lethal dose)” value is above 1000 mg/kg in the series on dd-strain male mice (i.p.) and 2000 mg/kg in the series on dd-strain male mice (p.o.).
